Results on one substance are retold here after patent US20030147850A1 (priority 2002, published 2003).

This assay has as its system vesicular stomatitis virus (VSV). Type of assay: cell-based.

On to Disodium succinate hexahydrate, for which the “CPE inhibition, % of IFN control” value is reported as 0%.
